Source: US11040986B2, “Crystalline forms of cabotegravir sodium” (Sandoz AG, priority 2017, dated 2021)
Each block holds one compound with its values, some of them ahead of it.

Tests used:
[1] = competitive slurry experiments with Form A and Form B in 2-butanone; type: physicochemical; conditions: for Sample 1 after 1 day (solid form) / Sample 2 after 2 days (solid form) / Sample 3 after 6 days (solid form) / Result (solid form after slurrying): 2-butanone; for Result (solid form after slurrying): equal amounts of Form A and Form B
Protocol: Competitive slurry experiments in 2-butanone were performed by suspending equal amounts of Form A (approximately 50 mg, prepared according to Reference Example 1 herein) and Form B (approximately 50 mg, prepared according to Example 1 herein) in 2-butanone (4 mL) and vigorously stirring the obtained suspension using a magnetic stirrer at 20° C.; 40° C., 60° C. and 80° C. respectively.

[2] = equilibrium slurry experiments starting from cabotegravir sodium Form A (solvent-mediated phase transformation, PXRD); type: physicochemical; conditions: for Result (PXRD): 7 days
Protocol: […] After 7 days, the solids were collected by filtration dried under vacuum (30 mbar) at room temperature for 20 hours and analyzed by PXRD.
PXRD was performed with a PANalytical X'Pert PRO diffractometer equipped with a theta/theta coupled goniometer in transmission geometry, Cu-Kalpha1,2 radiation (wavelength 0.15419 nm) with a focusing mirror and a solid state PIXcel detector. Diffractograms were recorded at a tube voltage of 45 kV and a tube current of 40 mA, applying a stepsize of 0.013° 2-theta with 40 s per step (255 channels) in the angular range of 2° to 40° 2-theta at ambient conditions. A typical precision of the 2-theta values is in the range of ±0.2° 2-Theta, preferably of ±0.1° 2-Theta. Thus, the diffraction peak of cabotegravir sodium Form B that appears for example at 6.8° 2-Theta can appear in the range of from 6.6 to 7.0° 2-Theta, preferably in the range of from 6.7 to 6.9° 2-Theta on most X-ray diffractometers under standard conditions. […]
[…] The suspension was vigorously stirred at 60° C. using a magnetic stirrer. After 2 days, the solid was collected by filtration dried under vacuum (30 mbar) at room temperature for 20 hours and analyzed by PXRD, which confirmed the receipt of Form C.

Sample 1 after 1 day (solid form) ([1]; 20° C.): Form B
Sample 2 after 2 days (solid form) ([1]; 20° C.): Form B
Sample 3 after 6 days (solid form) ([1]; 20° C.): Form B
Sample 1 after 1 day (solid form) ([1]; 40° C.): Form B
Sample 2 after 2 days (solid form) ([1]; 40° C.): Form B
Sample 3 after 6 days (solid form) ([1]; 40° C.): Form B
Sample 1 after 1 day (solid form) ([1]; 60° C.): Form B
Sample 2 after 2 days (solid form) ([1]; 60° C.): Form B
Sample 3 after 6 days (solid form) ([1]; 60° C.): Form B
Sample 1 after 1 day (solid form) ([1]; 80° C.): Form B
Sample 2 after 2 days (solid form) ([1]; 80° C.): Form B
Sample 3 after 6 days (solid form) ([1]; 80° C.): Form B
Result (solid form after slurrying) ([1]; 20° C.): Form B
Result (solid form after slurrying) ([1]; 40° C.): Form B
Result (solid form after slurrying) ([1]; 60° C.): Form B
Result (solid form after slurrying) ([1]; 80° C.): Form B
Structure (SMILES): C[C@H]1CO[C@@H]2Cn3cc(C(=O)NCc4ccc(F)cc4F)c(=O)c([O-])c3C(=O)N12.[Na+] [Form A + Form B, cabotegravir sodium]

Result (PXRD) ([2]; 1,4-dioxane 5 mL, room temperature): Form B
Result (solid form after slurrying) ([2]; 1,4-dioxane, room temperature): Form B
Result (PXRD) ([2]; 2-butanone 5 mL, room temperature): Form B
Result (solid form after slurrying) ([2]; 2-butanone, 20° C.): Form B
Result (solid form after slurrying) ([2]; 2-butanone, 40° C.): Form B
Result (solid form after slurrying) ([2]; 2-butanone, 60° C.): Form B
Result (solid form after slurrying) ([2]; 2-butanone, 80° C.): Form B
Result (solid form after slurrying) ([2]; 2-butanone, room temperature): Form B
Result (PXRD) ([2]; acetone 5 mL, room temperature): Form B
Result (solid form after slurrying) ([2]; acetone, room temperature): Form B
Result (PXRD) ([2]; methyl acetate 5 mL, room temperature): Form B
Result (solid form after slurrying) ([2]; methyl acetate, room temperature): Form B
solid form by PXRD after slurrying ([2]; methylisobutyl ketone 20 mL, 60° C., 2 days): Form C
Result (solid form after slurrying) ([2]; methylisobutyl ketone, 60° C.): Form C
Result (solid form after slurrying) ([2]; methylisobutyl ketone, room temperature): Form C
Result (PXRD) ([2]; tetrahydrofuran 5 mL, room temperature): Form B
Result (solid form after slurrying) ([2]; tetrahydrofuran, room temperature): Form B
Structure (SMILES): C[C@H]1CO[C@@H]2Cn3cc(C(=O)NCc4ccc(F)cc4F)c(=O)c([O-])c3C(=O)N12.[Na+] [Form A, cabotegravir sodium]

Structure (SMILES): C[C@H]1CO[C@@H]2Cn3cc(C(=O)NCc4ccc(F)cc4F)c(=O)c([O-])c3C(=O)N12.[Na+] [Form B, cabotegravir sodium]
thermodynamic stability relative to Form A ([2]; slurry experiments of Table 1, at least under the tested conditions): thermodynamically more stable than prior art Form A
thermodynamic stability relative to Form A ([1]; competitive slurry in 2-butanone, 20 to 80° C.): thermodynamically more stable than Form A
